Results taken from US20200291127A1, “ANTIBODIES AND METHODS OF USE THEREOF” (AbeXXa Biologics, Inc., priority 2020, published 2020).

Molecular target: HLA-E*0103 (Homo sapiens, UniProt P13747)
Assay: HLA-E peptide refolding into monomer complexes
Assay type: biochemical

## YLLPAIVHI
  refolding of HLA-E*0103/peptide: successfully refold HLA-E*0103/peptide into stable monomer complexes
